In patent US6552080B1, “Fungicidal compounds having a fluorovinyl-or fluoropropenyl-oxyphenyloxime moiety and process for the preparation thereof” (Korea Research Institute of Chemical Technology, priority 1999, dated 2003):
Like-named read-outs stand apart in the source and are kept apart here.

Columns and labels:
[1] = tested on: Puccinia recondita; experiment: Fungicidal activity against Wheat Leaf Rust (WLR) disease; format: in vivo
[2] = tested on: Erysiphae graminis; experiment: Fungicidal activity against Barley Powdery Mildew (BPM) disease; format: in vivo
[3] = tested on: Rhizoctonia solani AG-1; experiment: Fungicidal activity against Rice Sheath Blight (RSB) disease
Experimental: To examine fungicidal activity of the compounds of the present invention, each of the compounds listed in Table 3 and 4 was dissolved in 10% acetone to a concentration of 250 ppm, and Tween-20 was added thereto to a concentration of 250 or 500 ppm. 50 ml of the resulting solution was sprayed on leaves of a host plant. The plant was kept at room temperature for 24 hours to let the solvent evaporate, and then, a pathogenic fungus was inoculated thereonto. The plant was held in a humidity chamber for 24 hours, transferred to an plant growth room kept at 20 to 27° C. and a relative humidity of 60 to 80% and kept to induce disease. […] This procedure was repeated twice for each test. 10% Acetone solution containing 250 ppm of Tween-20 was used as a control.
The fungicidal activity of the compound of the present invention is repressed by a control value (C.V.) calculated as; [formula]
Rhizoctonia solani AG-1 was cultured on a PDA medium (potato 200 g, dextrose 20 g, agar 20 g and distilled water 1 ? for 3 days and the agar disc(diameter 0.6 cm) was inoculated and cultured on sterilized wheat bran medium in a 1 L bottle at 26 to 28° C. for 7 days. A mycelial mass was ground using a homogenizer, inoculated uniformly on soil of a pot wherein a Nakdong rice plant having 2 or 3 leaves and an height of 5 cm grew, and kept in humidity polyvinyl chamber for 5 days to induce RSB. L.A. on a leaf sheath was measured to calculate an C.V.

[4] = tested on: Pyricularia oryzae Carvara KA301; format: in vivo
[5] = tested on: Phytophthora infestans; format: in vivo
[6] = tested on: Botrytis cinerae; experiment: Fungicidal activity against Cucumber Gray Mold Rot (CGM) disease; format: in vivo

With OC(c1ccc(Cl)cc1)(c1cncnc1)c1ccccc1Cl (stereo not drawn) [FENARIMOL, reference compound] the “Fungicidal Activities WLR (C.V.)” value ([1]; 0.08 ppm) was 15%, the “Fungicidal Activities WLR (C.V.)” value ([1]; 0.40 ppm) was 15% and the “Fungicidal Activities WLR (C.V.)” value ([1]; 2 ppm) was 80%. The “Fungicidal Activities WLR (C.V.)” value ([1]; 10 ppm) was 100%, the “Fungicidal Activities BPM (C.V.)” value ([2]; 0.08 ppm) was 50% and the “Fungicidal Activities BPM (C.V.)” value ([2]; 0.40 ppm) was 95%. The “Fungicidal Activities BPM (C.V.)” value ([2]; 2 ppm) was 100%, the “Fungicidal Activities BPM (C.V.)” value ([2]; 10 ppm) was 100% and the “Fungicidal Activities RSB (C.V.)” value ([3]; 0.08 ppm) was 14%. For the same compound, the “Fungicidal Activities RSB (C.V.)” value ([3]; 0.40 ppm) was 30%, the “Fungicidal Activities RSB (C.V.)” value ([3]; 2 ppm) was 40% and the “Fungicidal Activities RSB (C.V.)” value ([3]; 10 ppm) was 85%. The “Fungicidal Activities RCV (C.V.)” value ([4]; 0.08 ppm) was 0%, the “Fungicidal Activities RCV (C.V.)” value ([4]; 0.40 ppm) was 0% and the “Fungicidal Activities RCV (C.V.)” value ([4]; 2 ppm) was 0%. For the same compound, the “Fungicidal Activities RCV (C.V.)” value ([4]; 10 ppm) was 0%, the “Fungicidal Activities TLB (C.V.)” value ([5]; 0.08 ppm) was 0% and the “Fungicidal Activities TLB (C.V.)” value ([5]; 0.40 ppm) was 60%. The “Fungicidal Activities TLB (C.V.)” value ([5]; 2 ppm) was 75%, the “Fungicidal Activities TLB (C.V.)” value ([5]; 10 ppm) was 80% and the “Fungicidal Activities CGM (C.V.)” value ([6]; 0.08 ppm) was 0%. For the same compound, the “Fungicidal Activities CGM (C.V.)” value ([6]; 0.40 ppm) was 7%, the “Fungicidal Activities CGM (C.V.)” value ([6]; 2 ppm) was 7% and the “Fungicidal Activities CGM (C.V.)” value ([6]; 10 ppm) was 7%.
